{
  "source": "paper PMC8908490",
  "about": "(ACS Omega, 2022)",
  "key": {"[1]": {"assay": "HPLC-based chemical stability at different pH", "settings": "for chemical stability (in words): acidic conditions, pH 1, 37 °C"}, "interleukin-1β": {"system": "interleukin-1β", "settings": "cell-based interleukin-1β assay; cited from earlier work"}, "[2]": {"settings": "cited from earlier work"}, "human NLRP3-NACHT domain": {"molecular_target": "human NLRP3-NACHT domain (Homo sapiens, UniProt Q96P20)", "sequence (Q96P20 220-536 limits assumed)": "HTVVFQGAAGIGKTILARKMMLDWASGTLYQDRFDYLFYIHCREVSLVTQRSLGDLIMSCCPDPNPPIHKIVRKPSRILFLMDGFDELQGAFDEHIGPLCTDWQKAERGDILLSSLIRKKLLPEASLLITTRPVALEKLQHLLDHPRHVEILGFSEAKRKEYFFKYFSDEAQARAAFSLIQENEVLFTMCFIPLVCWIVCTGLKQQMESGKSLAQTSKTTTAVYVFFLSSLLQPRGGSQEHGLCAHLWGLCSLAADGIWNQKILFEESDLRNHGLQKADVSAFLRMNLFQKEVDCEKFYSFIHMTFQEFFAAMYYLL", "settings": "presence of ADP"}},
  "data": [
    {"compound": "CC(C)(O)c1csc(S(=O)(=O)NC(=O)Nc2c3c(cc4c2CCC4)CCC3)c1", "note": "[Compound 2, N-((1,2,3,5,6,7-Hexahydro-s-indacen-4-yl)carbamoyl)-4-(2-hydroxypropan-2-yl)thiophene-2-sulfonamide]", "values": [
      {"measurement": "chemical stability (in words)", "setting": "[1]", "result": "similarly stable"}
    ]},
    {"compound": "CC(C)S(=O)(=O)NC(=O)Nc1c2c(cc3c1CCC3)CCC2", "note": "[Compound 5, N-((1,2,3,5,6,7-Hexahydro-s-indacen-4-yl)carbamoyl)propane-2-sulfonamide]", "values": [
      {"measurement": "chemical stability (in words)", "setting": "[1]", "result": "unstable"}
    ]},
    {"compound": "O=C(Nc1c2c(cc3c1CCC3)CCC2)NS(=O)(=O)c1cccs1", "note": "[Compound 4, N-((1,2,3,5,6,7-Hexahydro-s-indacen-4-yl)carbamoyl)thiophene-2-sulfonamide]", "values": [
      {"measurement": "fold shorter half-life than benzene analogue", "setting": "[1]; pH 1, 4 versus 8, 6 versus 9", "result": 12, "unit": "fold"}
    ]},
    {"compound": "O=C(Nc1c2c(cc3c1CCC3)CCC2)NS(=O)(=O)c1ccco1", "note": "[Compound 3, N-((1,2,3,5,6,7-Hexahydro-s-indacen-4-yl)carbamoyl)furan-2-sulfonamide]", "values": [
      {"measurement": "chemical stability (in words)", "setting": "[1]", "result": "unstable"}
    ]},
    {"compound": "CC(C)(O)c1coc(S(=O)(=O)NC(=O)Nc2c3c(cc4c2CCC4)CCC3)c1", "note": "[Compound 1, N-((1,2,3,5,6,7-Hexahydro-s-indacen-4-yl)carbamoyl)-4-(2-hydroxypropan-2-yl)furan-2-sulfonamide]", "values": [
      {"measurement": "IC50", "setting": "interleukin-1β", "result": 7.5, "unit": "nM"},
      {"measurement": "plasma half-life", "setting": "[2]", "result": 3.27, "unit": "h"}
    ]},
    {"compound": "O=C(Nc1c2c(cc3c1CCCC3)CCCC2)NS(=O)(=O)c1ccccc1", "note": "[Compound 7, N-((1,2,3,4,5,6,7,8-Octahydroanthracen-9-yl)carbamoyl)benzenesulfonamide]", "values": [
      {"measurement": "chemical stability (in words)", "setting": "[1]", "result": "similarly unstable"},
      {"measurement": "NLRP3 binding by SPR (in words)", "setting": "human NLRP3-NACHT domain", "result": "total loss of binding ability"}
    ]}
  ]
}
